Reference: US7420100B2, “Methods and compositions relating to HDAC 4 and 5 regulation of cardiac gene expression” (Board of Regents, The University of Texas System, priority 1999, dated 2008)

Key:
[1] = test system: GAL4-MEF2C fusion protein; assay: activation of GAL4-MEF2C fusion protein in cardiomyocytes; type: cell-based, rat; details: stimulation of cardiomyocytes
Protocol: Preparation of primary rat cardiomyocytes. Cardiomyocyte cultures are prepared by dissociation of 1-day old neonatal rat hearts and were differentially plated to remove fibroblasts. To induce the hypertrophic response, AngII and PE are added to cardiomyocyte cultures at 10 nM and 10 μM, respectively, in serum-free M199 media. The culture media containing either agonist is changed every 12 hours for a period of 72 hours.
In light of the ability of MEF2 to respond to calcium-dependent signal transduction pathways in T cells, the inventors have investigated whether the same pathways also activate MEF2 in cardiomyocytes. […] When the C-terminus of MEF2C, which contains the transcription activation domains (TADs), but lacks the MADS and MEF2 domains required for DNA binding and dimerization, is fused to the DNA binding domain of the yeast transcription factor GAL4, the resulting GAL4-MEF2C fusion protein retains sensitivity to calcineurin and CaMKIV. This GAL4-MEF2C fusion protein is also activated by stimulation of cardiomyocytes with the hypertrophic agonist phenylephrine (PE).

BZLF1 = details: cited from earlier work
[2] = test system: hypertrophic response to endothelin-1; details: in vitro; cited from earlier work
cultured cardiomyocytes = details: α-adrenergic stimulation and Ca2+ channel agonists; cited from earlier work
[3] = test system: HDAC 5-green fluorescent protein (GFP) chimeric molecule; assay: subcellular distribution of HDAC 5-GFP in CaMKI-expressing cells exposed to leptomycinB; type: cell-based; details: CaMKI-expressing cells treated with leptomycinB
Excerpt: In principle, nuclear exclusion of HDAC 5 could result from inhibition of nuclear import or stimulation of nuclear export. To distinguish between these possibilities, the subcellular distribution of an HDAC 5-green fluorescent protein (GFP) chimeric molecule was monitored in cells exposed to leptomycinB, a fungal toxin that blocks nuclear export. In CaMK1 expressing cells, HDAC 5 is localized to the cytoplasm.

Molecule: CNC[C@H](O)c1cccc(O)c1 [phenylephrine]
- activation of GAL4-MEF2C fusion protein [1]: activated

Molecule: cyclosporin A [CsA]
- effect on BZLF1 transcription (BZLF1): inhibited

Molecule: COc1ccc(S(=O)(=O)N(CCO)c2ccccc2CN(C)C/C=C/c2ccc(Cl)cc2)cc1 [KN-93]
- effect on hypertrophic response to endothelin-1 [2]: can block the hypertrophic response

Molecule: NCCCCCCNS(=O)(=O)c1cccc2c(Cl)cccc12 [W-7]
- effect on hypertrophy (cultured cardiomyocytes): prevents hypertrophy

Molecule: CCC(=C/[C@H](C)C/C=C/C(C)=C/[C@@H](C)C(=O)[C@@H](C)[C@H](O)[C@@H](C)C/C(C)=C/C(=O)O)/C=C/[C@@H]1OC(=O)C=C[C@@H]1C [leptomycinB]
- subcellular localization of HDAC 5 [3]: translocation of HDAC 5 from the cytoplasm to the nucleus
- time course of HDAC 5 translocation from cytoplasm to nucleus [3]: 4 h
